According to patent US10294202B2, “Pyrrolidinones as herbicides” (FMC Corporation, priority 2013, dated 2019):

Assays:
buckwheat, wild = test: Test D pre-/postemergence herbicide test; assay type: in vivo, Polygonum convolvulus; details: for Plant response rating: Buckwheat, Wild, scale 0 to 100; for Plant response rating, Buckwheat, Wild: scale 0 to 100 (0 no effect, 100 complete control)
Procedure, shortened: (§1)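 Compound applied in non-phytotoxic solvent with surfactant, either preemergence (silt loam soil) or postemergence (peat moss/vermiculite medium, 2–18 cm plants). Evaluated visually after 7 to 21 days; 0 = no effect, 100 = complete control.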

bluegrass = test: Test D pre-/postemergence herbicide test; assay type: in vivo, Poa annua; details: for Plant response rating: Bluegrass, scale 0 to 100; for Plant response rating, Bluegrass: scale 0 to 100 (0 no effect, 100 complete control)
Procedure, shortened: as §1

lambsquarters = test: Test E preemergence herbicide test; assay type: in vivo, Chenopodium album; design: key: 0 = no effect, 100 = complete control
Procedure, shortened: (§2)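 Seeds were sown in silt loam soil and treated preemergence with test chemicals in a non-phytotoxic solvent mixture containing a surfactant. Plants were kept in a greenhouse for 21 days, then visually rated against untreated controls on a 0–100 scale (0 = no effect, 100 = complete control).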

sandbur = test: Test E preemergence herbicide test; assay type: in vivo, Cenchrus echinatus; design: key: 0 = no effect, 100 = complete control
Procedure, shortened: as §2

blackgrass = test: Test D pre-/postemergence herbicide test; assay type: in vivo, Alopecurus myosuroides; details: for Plant response rating: Blackgrass, scale 0 to 100; for Plant response rating, Blackgrass: scale 0 to 100 (0 no effect, 100 complete control)
Procedure, shortened: as §1

pigweed = test: Test D pre-/postemergence herbicide test; assay type: in vivo, Amaranthus retroflexus; details: for Plant response rating: Postemergence, Pigweed, scale 0 to 100; for Plant response rating, Pigweed: Preemergence, scale 0 to 100 (0 no effect, 100 complete control)
Procedure, shortened: as §1

mustard, wild = test: Test D pre-/postemergence herbicide test; assay type: in vivo, Sinapis arvensis; details: for Plant response rating: Mustard, Wild, scale 0 to 100; for Plant response rating, Mustard, Wild: scale 0 to 100 (0 no effect, 100 complete control)
Procedure, shortened: as §1

O=C1NCC(c2ccc(C(F)(F)F)cc2)C1C(=O)Nc1cccc(F)c1F (racemic) [Compound 202]
Plant response rating (buckwheat, wild; Postemergence, 31 g ai/ha): 0 | Plant response rating (buckwheat, wild; Postemergence, 62 g ai/ha): 0 | Plant response rating (buckwheat, wild; Postemergence, 125 g ai/ha): 0 | Plant response rating (buckwheat, wild; Postemergence, 250 g ai/ha): 10 | Plant response rating, Buckwheat, Wild (buckwheat, wild; Preemergence, 62 g ai/ha): 10 | Plant response rating, Buckwheat, Wild (buckwheat, wild; Preemergence, 31 g ai/ha): 0 | Plant response rating (buckwheat, wild; Preemergence, 125 g ai/ha): 10 | Plant response rating (buckwheat, wild; Preemergence, 250 g ai/ha): 15 | Plant response rating (bluegrass; Postemergence, 31 g ai/ha): 0 | Plant response rating (bluegrass; Postemergence, 62 g ai/ha): 10 | Plant response rating (bluegrass; Postemergence, 125 g ai/ha): 10 | Plant response rating (bluegrass; Postemergence, 250 g ai/ha): 15 | Plant response rating, Bluegrass (bluegrass; Preemergence, 62 g ai/ha): 25 | Plant response rating, Bluegrass (bluegrass; Preemergence, 31 g ai/ha): 10 | Plant response rating (bluegrass; Preemergence, 125 g ai/ha): 65 | Plant response rating (bluegrass; Preemergence, 250 g ai/ha): 70 | Plant response rating, Lambsquarters (lambsquarters; 31 g ai/ha): 0 | Plant response rating, Lambsquarters (lambsquarters; 62 g ai/ha): 98 | Plant response rating, Lambsquarters (lambsquarters; 125 g ai/ha): 98 | Plant response rating, Lambsquarters (lambsquarters; 250 g ai/ha): 98 | Plant response rating, Sandbur (sandbur; 31 g ai/ha): 35 | Plant response rating, Sandbur (sandbur; 62 g ai/ha): 70 | Plant response rating, Sandbur (sandbur; 125 g ai/ha): 85 | Plant response rating, Sandbur (sandbur; 250 g ai/ha): 80 | Plant response rating (blackgrass; Postemergence, 31 g ai/ha): 0 | Plant response rating (blackgrass; Postemergence, 62 g ai/ha): 5 | Plant response rating (blackgrass; Postemergence, 125 g ai/ha): 10 | Plant response rating (blackgrass; Postemergence, 250 g ai/ha): 40 | Plant response rating, Blackgrass (blackgrass; Preemergence, 62 g ai/ha): 35 | Plant response rating, Blackgrass (blackgrass; Preemergence, 31 g ai/ha): 30 | Plant response rating (blackgrass; Preemergence, 125 g ai/ha): 65 | Plant response rating (blackgrass; Preemergence, 250 g ai/ha): 75 | Plant response rating (pigweed; 31 g ai/ha): 75 | Plant response rating (pigweed; 62 g ai/ha): 75 | Plant response rating (pigweed; 125 g ai/ha): 75 | Plant response rating (pigweed; 250 g ai/ha): 80 | Plant response rating, Pigweed (pigweed; 62 g ai/ha): 80 | Plant response rating, Pigweed (pigweed; 125 g ai/ha): 90 | Plant response rating, Pigweed (pigweed; 31 g ai/ha): 75 | Plant response rating, Pigweed (pigweed; 250 g ai/ha): 90 | Plant response rating (mustard, wild; Postemergence, 31 g ai/ha): 85 | Plant response rating (mustard, wild; Postemergence, 62 g ai/ha): 80 | Plant response rating (mustard, wild; Postemergence, 125 g ai/ha): 80 | Plant response rating (mustard, wild; Postemergence, 250 g ai/ha): 85 | Plant response rating, Mustard, Wild (mustard, wild; Preemergence, 62 g ai/ha): 0 | Plant response rating, Mustard, Wild (mustard, wild; Preemergence, 31 g ai/ha): 0 | Plant response rating (mustard, wild; Preemergence, 125 g ai/ha): 20 | Plant response rating (mustard, wild; Preemergence, 250 g ai/ha): 75
